{
  "source": "patent US10441548B2",
  "about": "“Aggregating microparticles for medical therapy” (GRAYBUG VISION, INC., priority 2015, dated 2019)",
  "experiment": "Acute non-GLP IVT ocular tolerability and toxicity study of sunitinib malate (free drug)",
  "format": "in vivo, pigmented rabbits",
  "settings": "single bilateral IVT injection in PBS, up to 7 days",
  "method": "An acute, non-GLP IVT study was conducted to evaluate the ocular tolerability and toxicity of sunitinib malate (free drug) for up to 7 days following a single IVT injection. Sunitinib malate was formulated in phosphate buffered saline and injected bilaterally (0.1 mL) at 0.125 or 1.25 mg per eye.\nFIG. 13A, FIG. 13B, and FIG. 13C illustrate select PK profiles for sunitinib malate in the retina, vitreous, and plasma, respectively, from pigmented rabbits.",
  "data": [
    {"smiles": "CCN(CC)CCNC(=O)c1c(C)[nH]c(/C=C2\\C(=O)Nc3ccc(F)cc32)c1C", "note": "[sunitinib malate]", "values": [
      {"measurement": "no-observed-adverse-effect-level (NOAEL) dose", "value": 0.125, "unit": "mg/eye"}
    ]}
  ]
}
